Values of other authors in US8222453B2, “Benzamide factor VIIa inhibitors useful as anticoagulants” (Bristol-Myers Squibb Company, priority 2006, dated 2012).

How the values were obtained:
[1] = test system: deep vein thrombosis; conditions: patients undergoing total knee replacement
[2] = test system: systemic thrombin generation; conditions: patients undergoing coronary angioplasty

Substance: recombinant nematode anticoagulant protein c2 [rNAPc2]
- deep vein thrombosis [1]: prevents deep vein thrombosis
- systemic thrombin generation [2]: reduces systemic thrombin generation
